The results in this text go back to patent US4308269A, “Maytansinoids, pharmaceutical compositions thereof and method of use thereof” (Takeda Chemical Industries, Ltd., priority 1979, dated 1981).

Converted amounts (≈) assume the structure as drawn.

The test system of experiment [1] is melanoma B-16 tumor cells. In words: Antitumor activity, B-16 melanoma transplanted intraperitoneally in mice (NCI protocol 1,300), life span prolongation. The format is in vivo. Conditions: intraperitoneally once daily for 9 consecutive days. How it is done: Therapeutic tests were carried out in mice according to NCI-protocol 1,300, Cancer Chemother, Reports, Part 3, 1972, Vol. 3, No. 2, in which melanoma B-16 tumor cells had been intraperitoneally transplanted, compound (I) being administered intraperitoneally once daily for 9 consecutive days.

The subject of another experiment is Tetrahymena pyriformis W. In words: Antiprotozoal activity, growth inhibition by the serial dilution method. The note with it: 28° C., 44 to 48 hours, pH 7.0. The format is cell-based. How it is done:
Antioprotozoal activity of compound (I) was assayed with Tetrahymena pyriformis W as the test organism and a medium composed of 20 g tryptose-peptone (Difco Co.), 1 g yeast extract, 2 g glucose, 1000 ml distilled water, 10 ml 1 M phosphate buffer (pH 7.0) as the assay medium. The micoorganism was incubated at 28° C. for 44 to 48 hours and the growth inhibitory activity of compound (I) was assayed by the serial dilution method.

For orientation: MIC means the lowest concentration that inhibits growth of the organism.

Consider `COc1cc2cc(c1Cl)N(C)C(=O)CC(OC(=O)C(N)c1ccccc1)C1(C)OC1C(C)C1CC(O)(NC(=O)O1)C(OC)/C=C/C=C(\C)C2` (single isomer, unassigned) [maytansinol 3-α-aminophenylacetate], for which the “Antitumor activities B-16 (T/C%)” value in experiment [1] (dose 100 μg/kg), in experiment [1] (dose 400 μg/kg) and in experiment [1] (dose 800 μg/kg) was 208% in each case. The minimal inhibitory concentration (MIC) in the experiment on Tetrahymena pyriformis W lay in the range of 10 to 20 µg/mL (≈ 14.3 to 28.6 µM).
